The source of these data is ChEMBL document CHEMBL1150437, “Synthesis and neuraminidase inhibition studies of 4-azido, amino, and acetamido substituted sialosides” (Bioorg Med Chem Lett, 1994).

The test system of this assay is unidentified influenza virus. Put plainly: Compound was tested for inhibition of Influenza neuraminidase. The format is functional, organism-based.

Turning to `CC(=O)N[C@H]1[C@H]([C@H](O)[C@H](O)CO)O[C@@](OC[C@@H]2O[C@H](O)[C@@H](O)[C@@H](O)[C@H]2O)(C(=O)O)C[C@H]1N`, the affinity corresponds to a Ki of 150 µM.
As to `CC(=O)NC1C(N)CC(SC(C)C2OC(O)C(O)C(O)C2O)(C(=O)O)OC1[C@H](O)[C@H](O)CO` (some centres not stated), the Ki (in general, the equilibrium dissociation constant of an inhibitor or competing ligand from its target) came to 50 µM. Against the preceding compound, the Ki is about 3-fold lower.
